{"source": "patent US20200270576A1", "about": "“Ex Vivo Maintenance and Expansion of Stem Cells” (priority 2017, published 2020)", "key": {"Hsf1": {"tested_on": "Hsf1", "assay": "Hsf1 expression and localization by immunofluorescence in cultured HSCs", "assay_type": "cell-based, mouse", "conditions": "10 days culture; 17-AAG 5 nM, HSF1A 8 uM final concentration", "from_the_text": "FIG. 14 depicts representative immunofluorescence staining of HSCs cultured for 10 days in the presence or absence of 17-AAG or HSF1A. Addition of 17-AAG or HSF1A to culture medium increased Hsf1 accumulation in the nucleus of cultured HSCs. Hsf1-deficient HSCs and cells stained without primary antibody (Neg Con) are shown as controls.\nSince Hsf1 promoted HSC maintenance and protein homeostasis in vitro (FIG. 13), we investigated whether increasing Hsf1 expression or activity would further enhance HSC maintenance. […] Hsf1 can become active as a transcription factor when it translocates to the nucleus. We thus tested whether inhibitors of HSP90 or TRiC would promote Hsf1 accumulation in the nucleus of cultured HSCs by culturing HSCs for 10 days in the presence or absence of 17-AAG (HSP90 inhibitor; 5 nM final concentration) or HSF1A (TRiC inhibitor; 8 uM final concentration), and assessed Hsf1 expression and localization by immunofluorescence."}, "HSCs [1]": {"tested_on": "HSCs", "assay": "TMI fluorescence (unfolded protein abundance) in cultured HSCs", "assay_type": "cell-based, mouse", "conditions": "18 hours in culture", "protocol": "FIG. 15 depicts that addition of 17-AAG to culture medium reduced TMI fluorescence (unfolded protein abundance) within cultured HSCs (18 hour cultures shown).\nHsf1 promoted protein homeostasis maintenance in cultured HSCs (FIG. 13B), and 17-AAG promoted Hsf1 accumulation in cultured HSCs (FIG. 14). We thus investigated whether addition of 17-AAG to culture medium could promote protein homeostasis maintenance in HSCs. To test this, HSCs were cultured in the presence or absence (vehicle only; DMSO) of 17-AAG. After 18 hours in culture, we assessed protein homeostasis by quantifying unfolded protein abundance based on TMI fluorescence."}, "HSCs [2]": {"tested_on": "HSCs", "assay": "Competitive transplantation of HSCs cultured 10 days, with serial transplantation", "assay_type": "cell-based, murine", "from_the_text": "FIG. 16A-B depict that HSC functionality is maintained and expanded in vitro by interventions that can induce/activate Hsf1. FIG. 16A depicts donor cell engraftment 16 weeks after transplantation of 10 HSCs cultured for 10 days in the presence or absence of an HSP90 inhibitor (17-AAG) or TRiC inhibitor (HSF1A) or from 10 freshly isolated HSCs. Cells were transplanted with 2×10^5 freshly isolated congenic bone marrow cells (n=3 independent experiments with 3-5 recipients/condition/experiment). […] Addition of either 17-AAG or HSF1A increased the reconstituting potential of cultured HSCs as compared to both control cultured and freshly isolated HSCs.\nTo test if HSCs depend on Hsf1 for their maintenance in vitro, we conditionally deleted Hsf1 from HSCs, cultured them for 10 days and assessed their long-term multilineage reconstituting activity in competitive transplantation assays. The assay for testing HSC function is to assess their capacity to give long-term (16+ week) multilineage (B cell, T cell and myeloid cell) reconstitution of the blood system of an irradiated transplant recipient. A competitive transplantation assay provides a quantitative readout of HSC regenerative activity.\nModest declines in proteostasis impair HSC maintenance in vivo. […] This raises the possibility that increasing Hsf1 activity could promote HSC maintenance in vitro by enhancing proteostasis capacity. To test if HSP90 inhibitors or TRiC inhibitors promote HSC maintenance in vitro, purified HSCs were sorted from young adult murine bone marrow (CD45.1^+) into 96-well plates (10/well) containing our HSC medium supplemented with 17-AAG or HSF1A. HSCs were cultured for 10 days and competitively transplanted with 2×10^5 freshly isolated congenic bone marrow cells (CD45.2^+) into irradiated mice (CD45.2^+). Recipient mice were bled monthly (for 4 months) to assess levels of donor-derived CD45.1^+ hematopoietic cells. Self-renewal capacity of HSCs was assessed by serially transplanting hematopoietic cells from the primary recipients into secondary irradiated recipients (3×10^6 cells/recipient). […] Similar results are expected for other HSP90 or TRiC inhibitors.\nTo test if HSP90 inhibitors or TRiC inhibitors enable HSC expansion in vitro, purified HSCs were sorted from young adult bone marrow (CD45.1^+) into 96-well plates (10/well) containing HSC medium supplemented with 17-AAG or HSF1A. HSCs were cultured for 10 days and competitively transplanted with 2×10^5 freshly isolated congenic bone marrow cells (CD45.2^+) into irradiated mice (CD45.2^+). At the same time, 10 freshly isolated HSCs were transplanted with 2×10^5 freshly isolated congenic bone marrow cells into irradiated mice. Recipient mice were bled monthly (for 4 months) to assess levels of donor-derived CD45.1^+ hematopoietic cells. Self-renewal capacity of HSCs was assessed by serially transplanting hematopoietic cells (3×10^6 cells/recipient) into secondary irradiated recipients. […] Similar results are expected for other HSP90 or TRiC inhibitors."}, "[3]": {"tested_on": "Hsf1-deficient and control HSCs", "assay": "Competitive transplantation of cultured wild-type and Hsf1-deficient HSCs", "assay_type": "cell-based, mice", "conditions": "12 weeks after transplantation", "from_the_text": "FIG. 17 depicts that Hsf1 is required for 17-AAG and HSF1A to enhance HSC maintenance and expansion in vitro. Donor cell engraftment 12 weeks after transplantation of 10 wild-type and Hsf1-deficient HSCs cultured for 10 days in the presence or absence of 17-AAG, HSF1A or DMSO. Cells were transplanted with 2×10^5 freshly isolated congenic bone marrow cells (n=7-9; *P<0.05, **P<0.01).\nWe tested whether the positive effects of 17-AAG and HSF1A on HSC maintenance/expansion in vitro were mediated by Hsf1. Purified Hsf1-deficient and control HSCs were sorted from adult bone marrow (CD45.2^+) into 96-well plates (10/well) containing HSC medium supplemented with 17-AAG, HSF1A or vehicle (DMSO). HSCs were cultured for 10 days and competitively transplanted with 2×10^5 freshly isolated congenic bone marrow cells (CD45.1^+) into irradiated mice (CD45.1^+). Recipient mice were bled monthly to assess levels of donor-derived CD45.2^+ hematopoietic cells. […] However, the positive effect of 17-AAG and HSF1A was lost with Hsf1-deficient HSCs (FIG. 17)."}, "CD150+CD48-LSK HSCs": {"tested_on": "CD150+CD48-LSK HSCs", "assay": "Frequency of CD150+CD48-LSK cells in 10-day HSC cultures", "assay_type": "cell-based, mouse", "conditions": "10 HSCs/well, 10 days culture", "protocol": "FIG. 18 depicts that addition of 17-AAG to culture medium increased the frequency of CD150^+CD48^−LSK HSCs in 10-day HSC cultures as compared to controls.\nTo further test if HSP90 inhibitors promote HSC maintenance/expansion, we cultured purified HSCs (10/well) for 10 days in the presence or absence of 17-AAG, and assessed the frequency of CD150^+CD48^−LSK cells in culture. CD150^+CD48^−LSK cells were about ˜4-fold enriched when 17-AAG was added to the culture medium (FIG. 18). […] Similar results are expected for other HSP90 inhibitors, TRiC inhibitors and agonists of Hsf1."}, "HSCs [4]": {"tested_on": "HSCs", "assay": "Retroviral (MSCV-IRES-GFP) transduction of HSCs, GFP in colonies", "assay_type": "cell-based, mouse", "conditions": "medium supplemented with 17-AAG; colonies assessed ten days after plating", "protocol": "FIG. 19 depicts that addition of 17-AAG to culture medium supported highly efficient genetic modification of HSCs. The frequency of HSCs that were transduced with a GFP encoding retrovirus in culture is shown.\nWe tested whether the presence of HSP90 inhibitors in cell culture medium permitted efficient genetic modification of HSCs. Purified HSCs were cultured overnight in medium supplemented with 17-AAG. Retroviral supernatant (containing retrovirus encoding MSCV-IRES-GFP) was added two times (two hours apart), and the cells were cultured for an additional 24 hours. After culture, the cells were plated in methylcellulose semi-solid medium supplemented with hematopoietic cytokines. Ten days later, individual colonies (derived from single HSCs) were assessed for GFP expression by flow cytometry. […] We expect this will also be true for other HSP90 inhibitors, TRiC inhibitors and Hsf1 agonists. In addition, we expect that these agents will also be compatible for genetic modification of stem cells by other technologies (in addition to retrovirus), including but not limited to lentivirus, CRISPR and other genetic modification or editing technologies."}}, "data": [{"compound": "C=CCNC1=C2C[C@@H](C)C[C@H](OC)[C@H](O)[C@@H](C)/C=C(\\C)[C@H](OC(N)=O)[C@@H](OC)/C=C\\C=C(/C)C(=O)NC(=CC1=O)C2=O", "note": "[17-AAG, 17-N-Allylamino-17-demethoxygeldanamycin]", "values": [{"measurement": "Hsf1 abundance in the nucleus of cultured HSCs", "setting": "Hsf1", "value": "increase Hsf1 abundance in the nucleus"}, {"measurement": "TMI fluorescence (unfolded protein abundance) vs vehicle (DMSO) controls", "setting": "HSCs [1]", "value": "less TMI fluorescence than controls"}, {"measurement": "donor cell reconstitution vs recipients of freshly isolated HSCs", "setting": "HSCs [2]; 10 HSCs cultured 10 days vs 10 freshly isolated HSCs", "value": "higher levels of donor cell reconstitution as compared to recipients of freshly isolated HSCs"}, {"measurement": "donor cell reconstitution in primary recipients vs HSCs cultured without agent", "setting": "HSCs [2]; 10 HSCs cultured 10 days, with 2x10^5 congenic bone marrow cells, 16 weeks", "value": "significantly higher levels of donor cell reconstitution as compared to controls"}, {"measurement": "fraction of recipients with long-term multilineage reconstitution vs HSCs cultured without agent", "setting": "HSCs [2]; primary and secondary transplants, 16 week, >0.5% B-, T-, myeloid cells", "value": "greater fraction"}, {"measurement": "fraction of recipients with long-term multilineage reconstitution vs freshly isolated HSCs", "setting": "HSCs [2]; secondary transplants", "value": "significantly greater fraction"}, {"measurement": "donor cell reconstitution in secondary recipients vs HSCs cultured without agent", "setting": "HSCs [2]; serial transplant, 3x10^6 cells/recipient", "value": "even more pronounced"}, {"measurement": "donor cell reconstitution vs controls (DMSO), control HSCs", "setting": "[3]; 10 HSCs cultured 10 days", "value": "higher levels of donor cell reconstitution as compared to controls"}, {"measurement": "positive effect on donor cell reconstitution with Hsf1-deficient HSCs", "setting": "[3]; Hsf1-deficient HSCs cultured 10 days", "value": "lost"}, {"measurement": "enrichment of CD150+CD48-LSK cells vs culture without agent", "setting": "CD150+CD48-LSK HSCs", "value": "~4", "unit": "fold"}, {"measurement": "colonies in which GFP was detected", "setting": "HSCs [4]", "value": "22/25"}, {"measurement": "frequency of GFP-positive colonies (transduced HSCs)", "setting": "HSCs [4]", "value": 88, "unit": "%"}]}]}
